Where two headings read alike, the source gives them in different places.
Tests used:
[1] = tested on: NS5A chimeric genotype 2a JFH-1 replicon with genotype 2b MD2b-1 strain NS5A gene (M31 present); experiment: Replicon assay, genotype 2b NS5A chimera; type: cell-based, HCV
How it was run: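 EC50 was fitted by non-linear regression to Renilla luciferase signal after 72 h of exposure to 3-fold serially diluted compound (10 mM DMSO stocks). Controls were DMSO (none) and ITMN-191 above 100×EC50 (full). Chimeric 2a replicons were used either stable or transiently transfected into Huh-Lunet cells.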

[2] = tested on: NS5A chimeric genotype 1b Con1 replicon with genotype 4a ED43 strain NS5A gene; experiment: Replicon assay, genotype 4a NS5A chimera; type: cell-based, HCV
[3] = tested on: stable HCV 2a JFH-1 Rluc replicon cells (L31 present in NS5A); experiment: Renilla luciferase HCV replicon reporter assay, genotype 2a JFH-1; type: cell-based
How it was run: (§1)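 First, 3-fold serial dilutions of compound went onto replicon cells, DMSO serving as no-inhibition control and ITMN-191 at >100×EC50 as positive control. Next came 72 h incubation, lysis and Renilla luciferase measurement. Finally, EC50 was calculated by non-linear regression; replicons covered genotypes 1a H77, 1b Con1, 2a JFH-1 (L31) and J6-NS5A chimera (M31).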

[4] = tested on: NS5A chimeric genotype 1b Con1 replicon with genotype 3a S52 strain NS5A gene; experiment: Replicon assay, genotype 3a NS5A chimera; type: cell-based, HCV
[5] = tested on: stable HCV 1b RLuc replicon cells (dicistronic genotype 1b Con1 replicon); experiment: Renilla luciferase HCV replicon reporter assay, genotype 1b; type: cell-based; settings: stable 1b Con1 RLuc replicon cells, 72 hours, read-out: 1b
How it was run: as §1

[6] = tested on: NS5A chimeric genotype 2a JFH-1 replicon with genotype 2a J6 strain NS5A gene (M31 present); experiment: Replicon assay, genotype 2a J6 NS5A chimera; type: cell-based, HCV
How it was run: as §1

[7] = tested on: stable HCV 1a RLuc replicon cells (dicistronic genotype 1a H77 replicon); experiment: Renilla luciferase HCV replicon reporter assay, genotype 1a; type: cell-based; settings: stable 1a H77 RLuc replicon cells
How it was run: as §1

[8] = Hepatitis C virus, read-out: 2b (t) (nM), genotype 2b MD2b-1 NS5A chimeric replicon (M31), transiently transfected (t)
[9] = Hepatitis C virus, read-out: 2b (t), transiently transfected (t) into Huh-Lunet cells, activity range
[10] = Hepatitis C virus, 2BS, read-out: 2b (s), stably replicating replicon cells (s), activity range
[11] = Hepatitis C virus, read-out: 2b (s) (nM), genotype 2b MD2b-1 NS5A chimeric replicon (M31), stably replicating replicon cells (s)
[12] = Hepatitis C virus, read-out: 4a (s) (nM), genotype 4a NS5A chimeric replicon, stable replicon cells (s)
[13] = Hepatitis C virus, read-out: 4a (s), (s), activity range
[14] = Hepatitis C virus, read-out: 2a JFH (nM), genotype 2a JFH-1 replicon (L31 in NS5A), stable cells
[15] = Hepatitis C virus, read-out: 2a JFH, stable 2a JFH-1 Rluc replicon cells, L31 in NS5A, activity range
[16] = Hepatitis C virus, read-out: 3a (s) (nM), genotype 3a NS5A chimeric replicon, stable replicon cells (s)
[17] = Hepatitis C virus, read-out: 3a (s), (s), activity range
[18] = Hepatitis C virus, read-out: 2a J6 (t) (nM), genotype 2a J6 NS5A chimeric replicon (M31), transiently transfected (t) into Huh-Lunet cells
[19] = Hepatitis C virus, read-out: 2a J6 (t), transiently transfected (t) into Huh-Lunet cells, activity range
[20] = Hepatitis C virus, 72 h, activity range

SMILES | EC50 [1, 8] [nM] | EC50 [1, 9] [nM] | EC50 [1, 10] [nM] | EC50 [1, 11] [nM] | EC50 [2, 12] [nM] | EC50 [2, 13] [nM] | EC50 [3, 14] [nM] | EC50 [3, 15] [nM] | EC50 [4, 16] [nM] | EC50 [4, 17] [nM] | EC50 ([5]; Hepatitis C virus, 72 h) [nM] | EC50 [6, 18] [nM] | EC50 [6, 19] [nM] | EC50 ([7]; Hepatitis C virus, 72 h) [nM] | EC50 [7, 20] [nM] | other results
COC[C@H]1C[C@@H](c2nc(C3CC3)c(-c3ccc4c(c3)COc3cc5c(ccc6nc([C@@H]7CC[C@H](C)N7C(=O)[C@@H](NC(=O)OC)C(C)C)[nH]c65)cc3-4)[nH]2)N(C(=O)[C@H](NC(=O)OC)c2ccccc2)C1 [FV, Methyl {(1R)-2-[(2S,4S)-2-(4-cyclopropyl-5-{2-[(2S,5S)-1-{(2S)-2-[(methoxycarbonyl)amino]-3-methylbutanoyl}-5-methylpyrrolidin-2-yl]-1,11-dihydroisochromeno[4′,3′:6,7]naphtho[1,2-d]imidazol-9-yl}-1H-imidazol-2-yl)-4-(methoxymethyl)pyrrolidin-1-yl]-2-oxo-1-phenylethyl}carbamate] | 0.772 | 0.1 to 0.999 |  |  |  |  |  |  |  |  |  |  |  |  |  | EC50 ([1]; read-out: 2b (s), genotype 2b MD2b-1 NS5A chimeric replicon (M31), stably replicating replicon cells (s)): 2.55 nM; EC50 ([1]; read-out: 2b (s), stably replicating replicon cells (s), activity range): 1 to 44 nM; EC50 ([2]; read-out: 4a (s), (s), activity range): < 0.1 nM; EC50 ([2]; read-out: 4a (s), genotype 4a NS5A chimeric replicon, stable replicon cells (s)): 0.029 nM; EC50 ([3]; read-out: 2a JFH, genotype 2a JFH-1 replicon (L31 in NS5A), stable cells): 0.111 nM; EC50 ([3]; read-out: 2a JFH, stable 2a JFH-1 Rluc replicon cells, L31 in NS5A, activity range): 0.1 to 0.999 nM; EC50 ([4]; read-out: 3a (s), (s), activity range): 1 to 44 nM; EC50 ([4]; read-out: 3a (s), genotype 3a NS5A chimeric replicon, stable replicon cells (s)): 5.25 nM; EC50 [5]: 0.036 nM; EC50 ([6]; read-out: 2a J6 (t), genotype 2a J6 NS5A chimeric replicon (M31), transiently transfected (t) into Huh-Lunet cells): 3.78 nM; EC50 ([6]; read-out: 2a J6 (t), transiently transfected (t) into Huh-Lunet cells, activity range): 1 to 44 nM; EC50 ([7]; 72 hours): 0.023 nM; EC50 ([7]; 72 hours, activity range): < 0.1 nM
COC[C@H]1C[C@@H](c2ncc(-c3ccc4c(c3)COc3cc5c(ccc6nc([C@@H]7C[C@H](C)CN7C(=O)[C@@H](NC(=O)OC)[C@@H](C)OC)[nH]c65)cc3-4)[nH]2)N(C(=O)[C@@H](NC(=O)OC)[C@@H](C)OC)C1 [FW, Methyl {(2S,3R)-3-methoxy-1-[(2S,4S)-2-(9-{2-[(2S,4S)-1-[N-(methoxycarbonyl)-O-methyl-L-threonyl]-4-(methoxymethyl)pyrrolidin-2-yl]-1H-imidazol-5-yl}-1,11-dihydroisochromeno[4′,3′:6,7]naphtho[1,2-d]imidazol-2-yl)-4-methylpyrrolidin-1-yl]-1-oxobutan-2-yl}carbamate] | 0.399 | 0.1 to 0.999 | 0.1 to 0.999 | 0.773 | 0.08 | < 0.1 | 0.054 | < 0.1 | 1.17 | 1 to 44 | 0.187 | 0.104 | 0.1 to 0.999 | 0.121 | 0.1 to 0.999 | 
COC[C@H]1C[C@@H](c2ncc(-c3ccc4c(c3)COc3cc5c(ccc6nc([C@@H]7CC[C@H](C)N7C(=O)[C@@H](NC(=O)OC)[C@@H](C)OC)[nH]c65)cc3-4)[nH]2)N(C(=O)[C@@H](NC(=O)OC)[C@@H](C)OC)C1 [FX, Methyl {(2S,3R)-3-methoxy-1-[(2S,5S)-2-(9-{2-[(2S,4S)-1-[N-(methoxycarbonyl)-O-methyl-L-threonyl]-4-(methoxymethyl)pyrrolidin-2-yl]-1H-imidazol-5-yl}-1,11-dihydroisochromeno[4′,3′:6,7]naphtho[1,2-d]imidazol-2-yl)-5-methylpyrrolidin-1-yl]-1-oxobutan-2-yl}carbamate] | 0.122 | 0.1 to 0.999 | 0.1 to 0.999 | 0.288 | 0.031 | < 0.1 | 0.024 | < 0.1 | 0.243 | 0.1 to 0.999 | 0.06 | 0.064 | < 0.1 | 0.041 | < 0.1 | 
COC(=O)N[C@H](C(=O)N1[C@@H](C)CC[C@H]1c1nc(C2CC2)c(-c2ccc3c(c2)COc2cc4c(ccc5nc([C@@H]6CC[C@H](C)N6C(=O)[C@@H](NC(=O)OC)[C@@H](C)OC)[nH]c54)cc2-3)[nH]1)[C@@H](C)OC [GC, Methyl [(2S,3R)-1-{(2S,5S)-2-[9-(4-cyclopropyl-2-{(2S,5S)-1-[N-(methoxycarbonyl)-O-methyl-L-threonyl]-5-methylpyrrolidin-2-yl}-1H-imidazol-5-yl)-1,11-dihydroisochromeno[4′,3′:6,7]naphtho[1,2-d]imidazol-2-yl]-5-methylpyrrolidin-1-yl}-3-methoxy-1-oxobutan-2-yl]carbamate] |  |  | 0.1 to 0.999 | 0.117 | 0.013 | < 0.1 | 0.063 | < 0.1 | 0.14 | 0.1 to 0.999 | 0.022 | 0.181 | 0.1 to 0.999 | 0.013 | < 0.1 | EC50 ([4]; Hepatitis C virus, read-out: 3a (t) (nM), genotype 3a NS5A chimeric replicon, transiently transfected (t)): 0.032 nM; EC50 ([4]; Hepatitis C virus, read-out: 3a (t), transiently transfected (t) into Huh-Lunet cells, activity range): < 0.1 nM
COC(=O)N[C@H](C(=O)N1[C@@H](C)CC[C@H]1c1ncc(-c2ccc3c(c2)COc2cc4c(ccc5nc([C@@H]6CC[C@H](C)N6C(=O)[C@@H](NC(=O)OC)[C@H](C)OC)[nH]c54)cc2-3)[nH]1)[C@H](C)OC [GE] |  |  | 0.1 to 0.999 | 0.772 | 0.026 | < 0.1 | 0.104 | 0.1 to 0.999 | 0.445 | 0.1 to 0.999 | 0.062 | 0.508 | 0.1 to 0.999 | 0.043 | < 0.1 | 
CC[C@H](C)[C@H](NC(=O)OC)C(=O)N1[C@@H](C)CC[C@H]1c1ncc(-c2ccc3c(c2)COc2cc4c(ccc5nc([C@@H]6CC[C@H](C)N6C(=O)[C@@H](NC(=O)OC)C(C)C)[nH]c54)cc2-3)[nH]1 [GL] |  |  | 0.1 to 0.999 | 0.577 | 0.022 | < 0.1 | 0.024 | < 0.1 | 0.054 | < 0.1 | 0.021 | 0.364 | 0.1 to 0.999 | 0.015 | < 0.1 | 
CC[C@H](C)[C@H](NC(=O)OC)C(=O)N1[C@@H](C)CC[C@H]1c1nc2ccc3cc4c(cc3c2[nH]1)OCc1cc(-c2cnc([C@@H]3CC[C@H](C)N3C(=O)[C@@H](NC(=O)OC)C(C)C)[nH]2)ccc1-4 [GM] |  |  | 0.1 to 0.999 | 0.658 | 0.015 | < 0.1 | 0.016 | < 0.1 | 0.048 | < 0.1 | 0.016 | 0.222 | 0.1 to 0.999 | 0.012 | < 0.1 | 
COC(=O)N[C@H](C(=O)N1[C@@H](C)CC[C@H]1c1nc2ccc3cc4c(cc3c2[nH]1)OCc1cc(-c2cnc([C@@H]3CC[C@H](C)N3C(=O)[C@@H](NC(=O)OC)[C@@H](C)OC(F)F)[nH]2)ccc1-4)[C@@H](C)OC [GN] |  |  | 0.1 to 0.999 | 0.247 | 0.016 | < 0.1 | 0.017 | < 0.1 | 0.072 | < 0.1 | 0.023 | 0.033 | < 0.1 | 0.013 | < 0.1 | 
CC[C@H]1CC[C@@H](c2ncc(-c3ccc4c(c3)COc3cc5c(ccc6nc([C@@H]7C[C@H](C)CN7C(=O)[C@@H](NC(=O)OC)[C@@H](C)OC)[nH]c65)cc3-4)[nH]2)N1C(=O)[C@@H](NC(=O)OC)C(C)C [GO] |  |  | 0.1 to 0.999 | 0.775 | 0.029 | < 0.1 | 0.025 | < 0.1 | 1.28 | 1 to 44 | 0.028 | 0.112 | 0.1 to 0.999 | 0.021 | < 0.1 | 
CC[C@H]1CC[C@@H](c2ncc(-c3ccc4c(c3)COc3cc5c(ccc6nc([C@@H]7CC[C@H](C)N7C(=O)[C@@H](NC(=O)OC)[C@@H](C)OC)[nH]c65)cc3-4)[nH]2)N1C(=O)[C@H](C)NC(=O)OC [GP] |  |  | 1 to 44 | 2.33 | 0.031 | < 0.1 | 0.027 | < 0.1 | 0.571 | 0.1 to 0.999 | 0.027 | 1.07 | 1 to 44 | 0.018 | < 0.1 | 

From US10800789B2, “Antiviral compounds” (Gilead Pharmasset LLC, priority 2012, dated 2020)
